Measurements: article PMC9103789 (International Journal of Molecular Sciences, 2022)
“And” between values parts separate entries of the source, which are not always exact repeats. Identical values can stand only once.

Experiments:
CYP3A [1] = assay: IC50 shift assay in pooled HLMs (testosterone 6β-hydroxylation); format: in vitro ADME; conditions: human, pooled human liver microsomes, pH 7.4, probe testosterone (200 μM); for IC50 at 30 min / IC50: pooled HLMs; for IC50 at 30 min: 30 min preincubation with NADPH; for IC50: no preincubation
Experimental: Pooled HLMs were used in this assay to determine the IC50 shift and identify time-dependent inhibition. The experiment was divided into two groups, depending on preincubation status. […] In all samples, the final concentrations of organic solvents were not more than 1% (V/V). Schizandrol (A or B) was pre-incubated with the pooled HLMs and testosterone for 3 min at […]. In the groups without 30-minute preincubation, the reaction was started upon the addition of NADPH and terminated by 200 μL of ice-cooled methanol containing 0.315 μM of prednisolone (internal standard). […] Next, testosterone was added to initiate the reaction. The reaction was terminated with the same method. All experiments were carried out in triplicates.
The formation of 6β-hydroxytestosterone in a control group was used as a surrogate marker for remaining enzymes’ activity. […] IC50 shift value was determined by Equation (2). […] (2) IC50 shift=IC50 without NADPH preincubation/IC50 with NADPH preincubation

CYP3A (pooled HLMs) = assay: Reversible inhibition (RI) assay, tacrolimus metabolism in pooled HLMs; format: in vitro ADME, human; conditions: Dixon plot
Experimental: (§1) The reactions started upon the addition of NADPH and were terminated after 10 min by adding 200 μL of ice-cooled acetonitrile containing 0.1 μM of ascomycin (internal standard). […] The reaction was also terminated with ice-cooled acetonitrile. All experiments were carried out in triplicates. […] The intersection of lines was used to calculate the Ki value.

CYP3A [2] = assay: Time-dependent inhibition (TDI) assay in pooled HLMs; format: in vitro ADME, human; conditions: for kinact: human, pooled human liver microsomes, probe testosterone (200 μM), 6β-hydroxytestosterone formation
Experimental: (§2) A two-step protocol was followed to perform the general TDI assay. […] The reaction was initiated upon addition of NADPH (1 mM). At the designated time points (0, 5, 10, 20, or 30 min), an aliquot (20 μL) of the incubation mixture was transferred to a 180-microliter pre-warmed solution containing PBS (0.1 M), testosterone (200 μM) and NADPH (1 mM) for another 10-minute incubation. […] For the CYP3A5 experiment, CYP3cide and CYP3A5 * 1/*3 HLMs were pre-warmed for 3 min before the reaction initiation. […] All experiments were carried out in triplicates.
(§3) [I] stands for the inhibitor concentration. A high ratio of kinact over KI indicates great inhibitory potency. (3) kobs=kinact×[I]/KI+[I]

CYP3A4 = target: T1, CYP3A4 (Homo sapiens, UniProt P08684); assay: Time-dependent inhibition (TDI) assay in CYP3A5 *3/*3 HLMs; format: in vitro ADME; conditions: for KI / kinact/KI: CYP3A4, genotyped HLMs; for kinact: human, CYP3A5 *3/*3 genotyped human liver microsomes, probe testosterone (200 μM), 6β-hydroxytestosterone formation
T1 construct: replacing pooled HLMs with CYP3A5 * 3/*3 HLMs; tissue Transheep Co., Ltd. (Shanghai, China) lot: 0710253; host or cells: human liver microsomes, CYP3A5 *3/*3 genotype
Experimental: as §2, §3

[3] = Intrinsic clearance in human liver microsomes (in-house data); format: in vitro ADME; conditions: read-out: CLint,HLM
Excerpt: All physicochemical and in vitro pharmacokinetic parameters were obtained from the literature or predicted by Simcyp® Simulator (version 16, Certara, Sheffield, U.K.). The intrinsic clearance value of pooled HLMs and human tacrolimus PBPK model was retrieved from our previous publication. The models for CYP3A5 expressers/non-expressers were built by modifying our established model with intrinsic clearance values of each CYP isoform. With the inhibitory parameters acquired from our experiments, a DDI module was incorporated into the PBPK model of tacrolimus.

[4] = set-up: method as in PMID 25392942; conditions: after oral administration of WZC, healthy Chinese, plasma; cited from earlier work
CYP3A [5] = assay: Reversible inhibition (RI) assay, tacrolimus metabolism in pooled HLMs; format: in vitro ADME, human; conditions: human, pooled human liver microsomes, pH 7.4, probe tacrolimus (0.25, 0.5, 1, 2 μM), Dixon plot, tacrolimus substrate
Experimental: as §1

[6] = target: T2, CYP3A4 (CYP3A5 *3/*3 HLMs) (Homo sapiens, UniProt P08684); assay: Reversible inhibition (RI) assay in genotyped HLMs; format: in vitro ADME; conditions: Dixon plot, tacrolimus substrate
T2 construct: replacing pooled HLMs with CYP3A5 * 3/*3 HLMs; tissue Transheep Co., Ltd. (Shanghai, China) lot: 0710253; host or cells: human liver microsomes, CYP3A5 *3/*3 genotype
Experimental: (§4) The reactions started upon the addition of NADPH and were terminated after 10 min by adding 200 μL of ice-cooled acetonitrile containing 0.1 μM of ascomycin (internal standard). […] The reaction was also terminated with ice-cooled acetonitrile. All experiments were carried out in triplicates.
(§5) Linear regression implemented in GraphPad Prism was plotted with the reciprocal value of metabolic reaction rate (1/v) against inhibitor concentration. The intersection of lines was used to calculate the Ki value.

[7] = target: T3, CYP3A5 (CYP3A5 *1/*3 HLMs + CYP3cide) (Homo sapiens, UniProt P20815); assay: Reversible inhibition (RI) assay in genotyped HLMs with CYP3cide; format: in vitro ADME; conditions: Dixon plot, tacrolimus substrate
T3 construct: For the CYP3A5 experiment, CYP3cide and CYP3A5 * 1/*3 HLMs were pre-warmed; tissue Transheep Co., Ltd. (Shanghai, China) lot: 0710232; host or cells: human liver microsomes, CYP3A5 *1/*3 genotype, treated with CYP3cide
Experimental: as §4, §5

CYP3A5 = target: T4, CYP3A5 (Homo sapiens, UniProt P20815); assay: Time-dependent inhibition (TDI) assay in CYP3A5 *1/*3 HLMs with CYP3cide; format: in vitro ADME
T4 construct: For the CYP3A5 experiment, CYP3cide and CYP3A5 * 1/*3 HLMs were pre-warmed; tissue Transheep Co., Ltd. (Shanghai, China) lot: 0710232; host or cells: human liver microsomes, CYP3A5 *1/*3 genotype, treated with CYP3cide
Experimental: as §2, with “incubation. The reaction was stopped with ice-cooled acetonitrile containing prednisolone (0.315 μM).” for “incubation.”
Kinetic parameters of the TDI (KI and kinact refer to the inhibitor concentration causing half-maximal inactivation and the maximal inactivation rate constant, respectively) were determined with Equation (3). kobs refers to the observed inactivation rate of the affected enzyme, determined by the negative slope of the linear regression. kinact is calculated with the negative reciprocal value of the straight line at the Y-intercept, while the interception on X-axis represents KI. [I] stands for the inhibitor concentration. A high ratio of kinact over KI indicates great inhibitory potency. (3) kobs=kinact×[I]/KI+[I]

[8] = set-up: method as in PMID 24195812; conditions: rats, oral administration of SZB; cited from earlier work
[9] = set-up: method as in PMID 32250458; conditions: cited from earlier work

T1 sequence (P08684 whole entry): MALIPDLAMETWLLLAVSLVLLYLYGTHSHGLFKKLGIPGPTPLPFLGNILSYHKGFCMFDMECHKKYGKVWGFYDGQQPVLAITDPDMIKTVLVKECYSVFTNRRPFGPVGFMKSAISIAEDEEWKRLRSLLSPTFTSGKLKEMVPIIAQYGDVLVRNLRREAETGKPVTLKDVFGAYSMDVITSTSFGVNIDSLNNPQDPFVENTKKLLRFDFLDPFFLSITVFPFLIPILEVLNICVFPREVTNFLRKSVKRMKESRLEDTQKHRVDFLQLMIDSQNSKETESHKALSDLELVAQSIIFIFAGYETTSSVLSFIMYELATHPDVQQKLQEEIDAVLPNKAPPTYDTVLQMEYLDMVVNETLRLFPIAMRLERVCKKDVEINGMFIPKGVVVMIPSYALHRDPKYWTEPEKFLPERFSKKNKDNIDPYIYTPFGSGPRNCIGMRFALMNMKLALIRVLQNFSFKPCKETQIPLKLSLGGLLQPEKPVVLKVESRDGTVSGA
T4 sequence (P20815 whole entry): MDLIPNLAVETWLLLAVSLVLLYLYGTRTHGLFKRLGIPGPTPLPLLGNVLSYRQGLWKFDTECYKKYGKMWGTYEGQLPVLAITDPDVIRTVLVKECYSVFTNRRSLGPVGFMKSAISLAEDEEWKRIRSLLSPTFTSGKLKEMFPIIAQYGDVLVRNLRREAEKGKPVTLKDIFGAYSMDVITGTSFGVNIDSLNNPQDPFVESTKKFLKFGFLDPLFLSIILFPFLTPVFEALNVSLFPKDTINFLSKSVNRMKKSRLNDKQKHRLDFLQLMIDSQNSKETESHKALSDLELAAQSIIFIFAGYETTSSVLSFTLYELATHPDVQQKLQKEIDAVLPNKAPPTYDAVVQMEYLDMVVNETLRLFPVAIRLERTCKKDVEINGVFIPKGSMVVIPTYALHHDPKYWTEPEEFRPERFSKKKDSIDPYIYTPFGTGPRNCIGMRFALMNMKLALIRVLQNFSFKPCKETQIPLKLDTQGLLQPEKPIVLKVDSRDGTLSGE

SMILES	IC50 at 30 min (CYP3A [1]) [nM]	IC50 (CYP3A [1]) [nM]	reversible inhibition on CYP3A (pattern) (CYP3A (pooled HLMs))	KI (CYP3A [2]) [nM]	kinact/KI (CYP3A [2]) [M⁻¹ s⁻¹]	kinact (CYP3A [2]) [s⁻¹]	KI (CYP3A4) [nM]	kinact/KI (CYP3A4) [M⁻¹ s⁻¹]	kinact (CYP3A4) [s⁻¹]	microsomal CLint [3] [µL/min/mg]	AUC, observed [4] [ng·h/mL]	Cmax, observed [4] [ng/mL]	Tmax, observed [4] [h]	also measured
COc1cc2c(c(OC)c1OC)-c1c(cc(OC)c(OC)c1OC)C[C@](C)(O)[C@@H](C)C2 [SZA, Schizandrol A]	40400	63500	little reversible inhibition	15625	30.93	0.000483	15380	26	0.0004	50	467.14	111.37	1.81	IC50 shift at 30 min (CYP3A [1]; IC50 without NADPH preincubation / IC50 with NADPH preincubation): 1.57
COc1cc2c(c(OC)c1OC)-c1c(cc3c(c1OC)OCO3)C[C@H](C)[C@@](C)(O)C2 [SZB, Schizandrol B]	560	12000	competitive and reversible inhibition pattern	430	1705.5	0.000733	690	8937	0.00617	4.5	242.97	65.18	1.13	Ki at 10 min (CYP3A [5]): 5820 nM; Ki [6]: 2180 nM and 2030 nM; Ki [7]: 2030 nM and 2180 nM; KI (CYP3A5; CYP3A5, genotyped HLMs): 500 nM; kinact/KI (CYP3A5; CYP3A5, genotyped HLMs): 300 M⁻¹ s⁻¹; kinact (CYP3A5; human, CYP3A5 *1/*3 genotyped human liver microsomes with CYP3cide, probe testosterone (200 μM), 6β-hydroxytestosterone formation, with CYP3cide (concentration not stated for this test)): 0.00015 s⁻¹; increase in systemic exposure of tacrolimus [8]: 598.4%; increase in bosutinib exposure [9]: 200%
